Assay results published in ChEMBL document CHEMBL4433235, “Discovery of piperazic acid peptide deformylase inhibitors with in vivo activity for respiratory tract and skin infections” (Bioorg Med Chem Lett, 2019).
Converted amounts (≈) assume the structure as drawn.

What was measured:
[1] = test system: Streptococcus pneumoniae; assay: Antimicrobial activity against Streptococcus pneumoniae 1629; format: functional
[2] = test system: Staphylococcus aureus; assay: Antimicrobial activity against Staphylococcus aureus Oxford; format: functional
[3] = target: T1, Peptide deformylase (Staphylococcus aureus, UniProt P68826); assay: Inhibition of Staphylococcus aureus PDF by absorbance detection assay
T1 sequence (P68826 whole entry): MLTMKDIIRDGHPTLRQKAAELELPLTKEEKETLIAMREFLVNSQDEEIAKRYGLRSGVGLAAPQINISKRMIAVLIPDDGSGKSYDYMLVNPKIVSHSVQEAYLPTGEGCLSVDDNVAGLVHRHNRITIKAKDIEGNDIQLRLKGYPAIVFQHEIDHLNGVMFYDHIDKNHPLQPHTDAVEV

[4] = Solubility of compound by chemiluminescent nitrogen detection assay; format: physicochemical
[5] = Chromatographic hydrophobicity index, log D of compound at pH 7.4; format: physicochemical; details: buffer
[6] = test system: Haemophilus influenzae; assay: Antimicrobial activity against Haemophilus influenzae Q1; format: functional
[7] = test system: Staphylococcus aureus; assay: Antimicrobial activity against Staphylococcus aureus; format: functional
[8] = Inhibition of Haemophilus influenzae PDF by absorbance detection assay
[9] = test system: Streptococcus pneumoniae; assay: Antimicrobial activity against Streptococcus pneumoniae; format: functional
[10] = test system: Haemophilus influenzae; assay: Antimicrobial activity against Haemophilus influenzae; format: functional
[11] = Inhibition of Streptococcus pneumoniae PDF by absorbance detection assay
[12] = Inhibition of Haemophilus influenzae PDF by fluorescence detection assay
[13] = target: T1, Peptide deformylase; assay: Inhibition of Staphylococcus aureus PDF by fluorescence detection assay
[14] = Inhibition of Streptococcus pneumoniae PDF by fluorescence detection assay
[15] = Half life in rat at 5 mg/kg, po; format: ADME, organism-based; details: in vivo
[16] = AUC in rat at 3 mg/kg, iv; format: ADME, organism-based; details: in vivo
[17] = Oral bioavailability in rat at 5 mg/kg; format: ADME, organism-based; details: in vivo
[18] = Volume of distribution at steady state in rat at 3 mg/kg, iv; format: ADME, organism-based; details: in vivo, read-out: Vdss
[19] = Half life in rat at 3 mg/kg, iv; format: ADME, organism-based; details: in vivo
[20] = Cmax in rat at 5 mg/kg, po; format: ADME, organism-based; parameters: dose 5 mg/kg, route oral; details: in vivo
[21] = AUC in rat at 5 mg/kg, po; format: ADME, organism-based; details: in vivo
[22] = Clearance in rat at 3 mg/kg, iv; format: ADME, organism-based; details: in vivo
[23] = test system: Streptococcus pneumoniae; assay: Antimicrobial activity against Streptococcus pneumoniae Ery-2; format: functional
[24] = test system: Streptococcus pneumoniae; assay: Antimicrobial activity against Streptococcus pneumoniae Ery-2 infected in respiratory tract infection rat model assessed as log reduction in bacterial CFU at 150 mg/kg, po BID dosed 1 hr post infection and measured for 96 hrs; format: functional
[25] = test system: Streptococcus pneumoniae; assay: Antimicrobial activity against Streptococcus pneumoniae Ery-2 infected in respiratory tract infection rat model assessed as log reduction in bacterial CFU at 300 mg/kg, po BID dosed 1 hr post infection and measured for 96 hrs; format: functional

Row | MIC [1] [µg/mL] | MIC [2] [µg/mL] | IC50 [3] [nM] | solubility kinetic [4] [µM] | CHI [5] | MIC [6] [µg/mL] | IC50 [8] [nM] | IC50 [11] [nM] | SMILES | other results
1 | 2 (≈ 4.94 µM) | 2 (≈ 4.94 µM) | 2 | > 464 | 2.7 | 1 (≈ 2.47 µM) | 6 | 0.3 | O=CN(O)C[C@@H](CC1CCCC1)C(=O)N1NCCC[C@H]1C(=O)Nc1ccncn1 | MIC90 [7]: 1 µg/mL (≈ 2.47 µM); MIC90 [9]: 2 µg/mL (≈ 4.94 µM); MIC90 [10]: 2 µg/mL (≈ 4.94 µM)
2 | 8 (≈ 19.2 µM) | 8 (≈ 19.2 µM) |  | 483 (≈ 202 µg/mL) | 2.94 | 2 (≈ 4.79 µM) |  |  | Cc1cccnc1NC(=O)[C@@H]1CCCNN1C(=O)[C@H](CC1CCCC1)CN(O)C=O | IC50 [12]: 79 nM; IC50 [13]: 16 nM; IC50 [14]: 10 nM
3 | 2 (≈ 4.97 µM) | 4 (≈ 9.94 µM) | 5 | > 534 | 4.82 | 1 (≈ 2.48 µM) | 2 | 1 | O=CN(O)C[C@@H](CC1CCCC1)C(=O)N1NCCC[C@H]1C(=O)Nc1ccccc1 | 
4 | 4 (≈ 10.1 µM) | 1 (≈ 2.53 µM) | 6 | > 739 | 3.3 | 2 (≈ 5.07 µM) | 8 | 2 | O=CN(O)C[C@@H](CC1CCCC1)C(=O)N1NCCC[C@H]1C(=O)N1CCCCC1 | 
5 | 4 (≈ 10.9 µM) | 4 (≈ 10.9 µM) | 11 | > 544 | 3.19 | 0.5 (≈ 1.36 µM) | 5 | 3 | CCCNC(=O)[C@@H]1CCCNN1C(=O)[C@H](CC1CCCC1)CN(O)C=O | 
6 | 1 (≈ 2.23 µM) | 1 (≈ 2.23 µM) |  | > 515 | 3.65 | 1 (≈ 2.23 µM) |  |  | CN(C)c1cncc(NC(=O)[C@@H]2CCCNN2C(=O)[C@H](CC2CCCC2)CN(O)C=O)n1 | IC50 [12]: 16 nM; half-life [15]: 10 h; AUC [16]: 685 ng·h/mL; bioavailability [17]: 15%; Vd [18]: 13 L/kg; IC50 [13]: 5 nM; half-life [19]: 7 h; IC50 [14]: 0.79 nM; Cmax [20]: 53 ng/mL; AUC [21]: 169 ng·h/mL; clearance [22]: 73 mL/min/kg
7 | 4 (≈ 9.89 µM) | 1 (≈ 2.47 µM) | 2 | 303 (≈ 123 µg/mL) | 2.69 | 0.5 (≈ 1.24 µM) | 4 | 0.6 | O=CN(O)C[C@@H](CC1CCCC1)C(=O)N1NCCC[C@H]1C(=O)Nc1cccnn1 | 
8 | 4 (≈ 7.96 µM) | 16 (≈ 31.8 µM) |  | > 359 | 2.57 | 2 (≈ 3.98 µM) |  |  | CN1CCN(c2cncc(NC(=O)[C@@H]3CCCNN3C(=O)[C@H](CC3CCCC3)CN(O)C=O)n2)CC1 | IC50 [13]: 10 nM; IC50 [14]: 2 nM
9 | 1 (≈ 2.28 µM) | 1 (≈ 2.28 µM) | 1 | 530 (≈ 232 µg/mL) | 3.38 | 1 (≈ 2.28 µM) | 2 | 0.4 | CCc1nnc(NC(=O)[C@@H]2CCCNN2C(=O)[C@H](CC2CCCC2)CN(O)C=O)s1 | half-life [15]: 4.7 h; AUC [16]: 2140 ng·h/mL; bioavailability [17]: 36%; Vd [18]: 4 L/kg; half-life [19]: 6.7 h; MIC90 [7]: 2 µg/mL (≈ 4.56 µM); MIC [23]: 0.5 µg/mL (≈ 1.14 µM); Cmax [20]: 711 ng/mL; AUC [21]: 1580 ng·h/mL; clearance [22]: 20 mL/min/kg; MIC90 [9]: 1 µg/mL (≈ 2.28 µM); MIC90 [10]: 2 µg/mL (≈ 4.56 µM); Activity [24]: 0.8 log10CFU/ml; Activity [25]: 1.7 log10CFU/ml
10 | 1 (≈ 2.29 µM) | 0.25 (≈ 0.571 µM) | 0.63 | 381 (≈ 167 µg/mL) | 4.29 | 2 (≈ 4.57 µM) | 1 | 0.2 | Cc1nc(NC(=O)[C@@H]2CCCNN2C(=O)[C@H](CC2CCCC2)CN(O)C=O)sc1C | half-life [15]: 3.8 h; AUC [16]: 1030 ng·h/mL; bioavailability [17]: 41%; Vd [18]: 1.6 L/kg; half-life [19]: 1.1 h; MIC90 [7]: 0.5 µg/mL (≈ 1.14 µM); Cmax [20]: 349 ng/mL; AUC [21]: 700 ng·h/mL; clearance [22]: 49 mL/min/kg; MIC90 [9]: 0.5 µg/mL (≈ 1.14 µM); MIC90 [10]: 2 µg/mL (≈ 4.57 µM)
11 | 8 (≈ 19.8 µM) | 2 (≈ 4.94 µM) | 1 | > 586 | 2.87 | 0.25 (≈ 0.618 µM) | 3 | 0.3 | O=CN(O)C[C@@H](CC1CCCC1)C(=O)N1NCCC[C@H]1C(=O)Nc1cnccn1 | 
